Results reported in patent publication US20030094251A1, “Enhancing laccase activity using pro-oxidants and pro-degradants” (priority 2001, published 2003).

Key:
laccase = experiment: Chicago Blue assay: mediator-enhanced laccase-catalyzed bleaching of Chicago Blue in solution; type: biochemical, Aspergillus; details: decrease in absorbance of Chicago Blue at 610 nm after 3 min, mediator (0.1 umole/ml); for ΔmA610 (3 min) at pH 5.5: pH 5.5, laccase; for ΔmA610 (3 min) at pH 7.0: pH 7.0, laccase
Description: In this example, the pro-oxidants and pro-degradants were tested individually as mediators to enhance laccase-catalyzed bleaching of Chicago Blue in solution. The Chicago Blue Dye, also known as Direct Blue 1 or DB1, is a commonly used assay for the oxidative efficiency of laccase. The Chicago Blue Dye is fully described by Schneider et al. in U.S. Pat. No. 5,885,304, which is hereby incorporated by reference.
Each of the compounds (i.e., potential mediators) was dissolved in water, or in ethanol if the potential mediator was not water soluble, and then mixed with a phosphate buffer and a Chicago Blue solution. A solution of a laccase was added to make up 1 ml of the final solution, containing […] mediator, 20 mM buffer at pH 5.5 or 7.0, 0.1-1% laccase (v/v) and Chicago Blue solution, with absorbance at A610 nm between 0.6 to 0.8. The change in the absorbance at A610 nm was measured immediately using a UV-VIS spectrophotometer (UV-1201, Shimadzu Scientific Instruments) after the enzyme was added. The decrease in absorbance was recorded at 30-second intervals for 5 minutes and was used to estimate the efficiency of the mediator.

laccase (NS51003) = experiment: Pulp bleaching with laccase and mediators, delignification measured as change in Kappa number (TAPPI T236 cm-85); design: species or system Aspergillus
Description: Delignification of the pulp was measured as the change in Kappa number according to TAPPI method T236 cm-85. Briefly, a known mass of paper pulp (containing lignin) was reacted with an excess of potassium permanganate in acid solution for a specified period of time to oxidize the lignin. After the reaction, the residual permanganate was determined by titration. The Kappa number was defined as the volume (ml) of 0.1N potassium permanganate consumed by 1 g of moisture-free pulp in 0.5N sulfuric acid after a ten-minute reaction time at 25° C. under conditions such that one-half of the permanganate remains unreacted. A linear relationship with the lignin content of the pulp and the measurement of the Kappa number has been done on samples as low as 300 mg of pulp.
A softwood Kraft pulp, Kappa number 31.0, was treated with a laccase (NS51003) under the following conditions:
The dried pulp was added to 80 ml of 50 mM phosphate, pH 5.5, and disintegrated in a blender. The pulp was then transferred to a 500-ml conical flask and the blender was washed with 20 ml of the same buffer. The washed buffer and the pulp were combined. The mediator was added at 1-4% (w/w, based on the dry pulp) followed by the addition of the laccase. The pH of the pulp mixture was adjusted to 5.5 if needed. […]
The delignification of the pulp was measured as the change in the Kappa number according to TAPPI method T236 cm-85.

Kappa number reduction (in words) (laccase (NS51003); 0.1 ml of the 51003 laccase with the mediator) | SMILES | ΔmA610 (3 min) at pH 5.5 (laccase) | ΔmA610 (3 min) at pH 7.0 (laccase) | activity in enhancing bleaching (in words) (laccase (NS51003); pulp bleaching with laccase, Examples 2-6)
– | NC(N)=O [Urea, urea] | 1 | 0 | barely active
– | O=C(O)c1cccnc1 [Nicotinic acid, nicotinic acid] | 0 | 0 | –
– | O=C(O)c1ccccc1O [Salicylic acid, salicylic acid] | 11 | – | –
– | O=C1O[C@H]([C@@H](O)CO)C(O)=C1O [Ascorbic acid, ascorbic acid] | 6 | 2 | –
modest Kappa number reduction | On1nnc2ccccc21 [HBT, 1-hydroxybenzotriazole, reference compound] | – | – | –
